Assay results from US20240262832A1, “SMALL MOLECULE MODULATORS OF GLUCOCEREBROSIDASE ACTIVITY AND USES THEREOF” (Vanqua Bio, Inc., priority 2021, published 2024).

The compounds below were run against T1, GCase (Homo sapiens, UniProt P04062) (assay: activation of GCase in a live cell PFB assay in HELA cells).
T1 construct: endogenous in cells; host or cells: HeLa cells
T1 sequence (P04062 40-536): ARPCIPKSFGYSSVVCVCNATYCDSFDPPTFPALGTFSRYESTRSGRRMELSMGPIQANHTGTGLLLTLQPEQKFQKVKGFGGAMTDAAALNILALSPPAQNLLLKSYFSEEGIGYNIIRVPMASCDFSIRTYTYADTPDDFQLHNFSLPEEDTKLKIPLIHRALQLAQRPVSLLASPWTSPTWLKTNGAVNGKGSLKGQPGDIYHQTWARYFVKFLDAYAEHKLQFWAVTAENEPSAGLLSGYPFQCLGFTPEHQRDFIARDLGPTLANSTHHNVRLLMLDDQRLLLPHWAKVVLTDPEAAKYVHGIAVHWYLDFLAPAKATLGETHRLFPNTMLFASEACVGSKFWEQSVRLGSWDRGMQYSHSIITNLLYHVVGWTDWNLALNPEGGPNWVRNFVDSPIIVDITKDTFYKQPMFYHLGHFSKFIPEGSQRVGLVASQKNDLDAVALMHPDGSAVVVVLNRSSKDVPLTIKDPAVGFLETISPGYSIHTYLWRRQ
Format: cell-based
`FC(F)Cn1ncc2ncc(N3CCCC(COc4cccnc4Cl)C3)nc21` (centres unmarked) [Compound 59, 2-Chloro-3-({1-[1-(2,2-difluoroethyl)pyrazolo[3,4-b]pyrazin-6-yl]piperidin-3-yl}methoxy) pyridine] showed an EC50 of less than 10 µM.
`FC(F)(F)c1cccc(OC[C@@H]2[C@H]3CN(c4cncc(-c5nncs5)n4)C[C@@H]23)n1` [Compound 60, (1R,5S,6S)-3-[6-(1,3,4-thiadiazol-2-yl)pyrazin-2-yl]-6-({[6-(trifluoromethyl)pyridin-2-yl]oxy}methyl)-3-azabicyclo[3.1.0]hexane] was tested, and the EC50 was less than 10 µM.
For `FC(F)Cn1ncc2ncc(N3C[C@@H]4[C@@H](COc5ccc(C(F)(F)F)cn5)[C@@H]4C3)nc21` [Compound 61, (1R,5S,6S)-3-[1-(2,2-difluoroethyl)-1H-pyrazolo[3,4-b]pyrazin-6-yl]-6-({[5-(trifluoromethyl)pyridin-2-yl]oxy}methyl)-3-azabicyclo[3.1.0]hexane], the EC50 was 10 to 50 µM.
`FC(F)Cn1ncc2ncc(N3C[C@@H]4[C@@H](COc5cncc(C(F)(F)F)c5)[C@@H]4C3)nc21` [Compound 62, (1R,5S,6S)-3-[1-(2,2-difluoroethyl)-1H-pyrazolo[3,4-b]pyrazin-6-yl]-6-({[5-(trifluoromethyl)pyridin-3-yl]oxy}methyl)-3-azabicyclo[3.1.0]hexane] showed an EC50 of 10 to 50 µM.
`FC(F)Cn1ncc2ncc(N3C[C@@H]4[C@@H](COc5ccc(C(F)(F)F)nc5)[C@@H]4C3)nc21` [Compound 63, (1R,5S,6S)-3-[1-(2,2-difluoroethyl)-1H-pyrazolo[3,4-b]pyrazin-6-yl]-6-({[6-(trifluoromethyl)pyridin-3-yl]oxy}methyl)-3-azabicyclo[3.1.0]hexane] showed an EC50 of 10 to 50 µM.
`FC(F)(F)c1cccc(OCC2CN(c3cncc(-c4nncs4)n3)CCC2(F)F)n1` (centres unmarked) [Compound 64, 2-[4,4-Difluoro-3-({[6-(trifluoromethyl)pyridin-2-yl]oxy}methyl)piperidin-1-yl]-6-(1,3,4-thiadiazol-2-yl)pyrazine] was tested, and the EC50 was 10 to 50 µM.
`FC1(COc2cccc(C(F)(F)F)n2)CCCN(c2cncc(-c3nncs3)n2)C1` (centres unmarked) [Compound 65, 2-[3-Fluoro-3-({[6-(trifluoromethyl)pyridin-2-yl]oxy}methyl)piperidin-1-yl]-6-(1,3,4-thiadiazol-2-yl)pyrazine] gave an EC50 of less than 10 µM.
Compound `CC(CC1CCCN(c2cnc3cnn(CC(F)F)c3n2)C1)c1ccccc1C(F)(F)F` (centres unmarked) [Compound 66, 1-(2,2-Difluoroethyl)-6-(3-(2-(2-(trifluoromethyl)phenyl)propyl)piperidin-1-yl)-1H-pyrazolo[3,4-b]pyrazine] has an EC50 of 10 to 50 µM.
For `Cc1ccccc1OCC1CCCN(C(=O)c2cnc3c(cnn3-c3ccccc3)n2)C1` (centres unmarked) [Compound 67, (1-phenyl-1H-pyrazolo[3,4-b]pyrazin-5-yl)(3-((o-tolyloxy)methyl)piperidin-1-yl)methanone], the EC50 was 10 to 50 µM.
`Cn1c(-c2ccccc2)cc2nc(C(=O)N3CCCC(COc4cccnc4C(F)(F)F)C3)cnc21` (centres unmarked) [Compound 68, (5-methyl-6-phenyl-5H-pyrrolo[2,3-b]pyrazin-2-yl)(3-(((2-(trifluoromethyl)pyridin-3-yl)oxy)methyl)piperidin-1-yl)methanone] gave an EC50 of 10 to 50 µM.
With `FC(F)Cn1ncc2ncc(N3CCCC(COc4nccnc4Cl)C3)nc21` (centres unmarked) [Compound 69, 6-(3-(((3-Chloropyrazin-2-yl)oxy)methyl)piperidin-1-yl)-1-(2,2-difluoroethyl)-1H-pyrazolo[3,4-b]pyrazine] the EC50 was greater than 100 µM.
With `CC(=O)N1CCC(c2cc3ncc(N4CCCC(COc5cccnc5C(F)(F)F)C4)nc3n2C)CC1` (centres unmarked) [Compound 73, 1-(4-(5-methyl-3-(3-(((2-(trifluoromethyl)pyridin-3-yl)oxy)methyl)piperidin-1-yl)-5H-pyrrolo[2,3-b]pyrazin-6-yl)piperidin-1-yl)ethan-1-one] the EC50 was less than 10 µM.
`O=C(c1ccc2cc[nH]c2c1)N1C[C@@H]2[C@@H](COc3cccc(C(F)(F)F)n3)[C@@H]2C1` [Compound 74, 6-[(1R,5S,6S)-6-({[6-(trifluoromethyl)pyridin-2-yl]oxy}methyl)-3-azabicyclo[3.1.0]hexane-3-carbonyl]-1H-indole] gave an EC50 of 10 to 50 µM.
For `CC(C)c1cc(C(=O)N2C[C@@H]3[C@@H](COc4cccc(C(F)(F)F)n4)[C@@H]3C2)[nH]n1` [Compound 75, (1R,5S,6S)-3-[3-(Propan-2-yl)-1H-pyrazole-5-carbonyl]-6-({[6-(trifluoromethyl)pyridin-2-yl]oxy}methyl)-3-azabicyclo[3.1.0]hexane], the EC50 was 10 to 50 µM.
`O=C(c1nnc(C2(c3ccccc3)CCOC2)o1)N1CCCC(COc2ccccc2)C1` (centres unmarked) [Compound 76, 3-(phenoxymethyl)-1-[5-(3-phenyloxolan-3-yl)-1,3,4-oxadiazole-2-carbonyl]piperidine] was tested, and the EC50 was 10 to 50 µM.
`C[C@H]1CC[C@@H](COc2cccnc2C(F)(F)F)CN1c1cnc2cnn(CC(F)F)c2n1` [Compound 77, 1-(2,2-Difluoroethyl)-6-((2S,5R)-2-methyl-5-(((2-(trifluoromethyl)pyridin-3-yl)oxy)methyl)piperidin-1-yl)-1H-pyrazolo[3,4-b]pyrazine] showed an EC50 of less than 10 µM.
For `C[C@H]1CC[C@H](COc2cccnc2C(F)(F)F)CN1c1cnc2cnn(CC(F)F)c2n1` [Compound 78, 3-{[(3S,6S)-1-[1-(2,2-Difluoroethyl)pyrazolo[3,4-b]pyrazin-6-yl]-6-methylpiperidin-3-yl]methoxy}-2-(trifluoromethyl)pyridine], the EC50 was greater than 100 µM.
Work on `C[C@@H]1CC[C@@H](COc2cccnc2C(F)(F)F)CN1c1cnc2cnn(CC(F)F)c2n1` [Compound 79, 1-(2,2-Difluoroethyl)-6-((2R,5R)-2-methyl-5-(((2-(trifluoromethyl)pyridin-3-yl)oxy)methyl)piperidin-1-yl)-1H-pyrazolo[3,4-b]pyrazine] yielded an EC50 of less than 10 µM.
Compound `C[C@@H]1CC[C@H](COc2cccnc2C(F)(F)F)CN1c1cnc2cnn(CC(F)F)c2n1` [Compound 80, 1-(2,2-Difluoroethyl)-6-((2R,5S)-2-methyl-5-(((2-(trifluoromethyl)pyridin-3-yl)oxy)methyl)piperidin-1-yl)-1H-pyrazolo[3,4-b]pyrazine] has an EC50 of less than 10 µM.
In the case of `Cc1ccccc1OCC1CCCN(C(=O)c2c(-c3ccccc3)n(C)c3nccnc23)C1` (centres unmarked) [Compound 81, (5-Methyl-6-phenyl-5H-pyrrolo[2,3-b]pyrazin-7-yl)(3-((o-tolyloxy)methyl)piperidin-1-yl)methanone], the EC50 is reported as 10 to 50 µM.
For `CC(=O)N1CCC(c2cc3ncc(N4CCCC(COc5ccccc5C)C4)nc3n2C)CC1` (centres unmarked) [Compound 86, 1-(4-(5-Methyl-3-(3-((o-tolyloxy)methyl)piperidin-1-yl)-5H-pyrrolo[2,3-b]pyrazin-6-yl)piperidin-1-yl)ethan-1-one], the EC50 was 10 to 50 µM.
Compound `Fc1cc(F)cc(OCC2CCCN(c3cnc4cnn(C5COC5)c4n3)C2)c1` (centres unmarked) [Compound 88, 6-(3-((3,5-Difluorophenoxy)methyl)piperidin-1-yl)-1-(oxetan-3-yl)-1H-pyrazolo[3,4-b]pyrazine] has an EC50 of 10 to 50 µM.
`FC(F)Cn1ncc2ncc(N3C[C@@H]4[C@@H](COc5ncccc5C(F)(F)F)[C@@H]4C3)nc21` [Compound 89, (1R,5S,6S)-3-[1-(2,2-difluoroethyl)-1H-pyrazolo[3,4-b]pyrazin-6-yl]-6-({[3-(trifluoromethyl)pyridin-2-yl]oxy}methyl)-3-azabicyclo[3.1.0]hexane] was tested, and the EC50 was 10 to 50 µM.
